Our source for the pIC50 and IC50 values is ChEMBL document CHEMBL3045634, “Quantitative structure activity relationship analysis of angiotensin II AT1 receptor antagonists” (Med Chem Res, 2010).

The pIC50 is the IC50 on a negative log10 scale, so that one unit is a factor of ten. Low values mean a large IC50, high ones a small IC50. As a reminder, the IC50 is the concentration that inhibits the measured activity by half. A lower IC50 goes with inhibition by little substance.

One assay has as its target T1, Type-1 angiotensin II receptor (Homo sapiens) (UniProt P30556).
T1 sequence (whole entry): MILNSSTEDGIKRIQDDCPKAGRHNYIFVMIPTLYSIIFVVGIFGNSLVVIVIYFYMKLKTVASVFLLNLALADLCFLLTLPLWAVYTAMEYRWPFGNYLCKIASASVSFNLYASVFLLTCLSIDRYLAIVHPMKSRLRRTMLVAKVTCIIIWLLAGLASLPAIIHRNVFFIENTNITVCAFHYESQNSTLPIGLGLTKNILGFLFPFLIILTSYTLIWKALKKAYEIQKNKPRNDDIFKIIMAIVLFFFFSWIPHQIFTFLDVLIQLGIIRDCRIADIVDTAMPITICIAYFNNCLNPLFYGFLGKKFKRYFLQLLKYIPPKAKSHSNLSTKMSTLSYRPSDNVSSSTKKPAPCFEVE
The experiment in a line: (§1) Antagonist activity at angiotensin 2 type-1 receptor (unknown origin).
For the compound `CCCCc1ncc(/C=C2/C(=O)N(CCCC)C(=O)N2Cc2ccc(-c3ccccc3)cc2)n1Cc1ccc(C(=O)OC)cc1`, the pIC50 was determined as 6.05.

In another assay the target is T2, Type-1 angiotensin II receptor (Homo sapiens, UniProt P30556).
T2 sequence (P30556 whole entry): T1 sequence (whole entry)
The assay is described as §1.
With `CCCCc1ncc(/C=C2/C(=O)N(CCCC)C(=O)N2Cc2ccc(C(=O)OC)s2)n1Cc1ccc(C(=O)OC)cc1`, the IC50 was found to be 4.2 nM.
`CCCCc1ncc(/C=C2/C(=O)N(CCCC)C(=O)N2Cc2ccc(OC)cc2)n1Cc1ccc(C(=O)OC)cc1` registered an IC50 of 9.8 nM.
For `CCCCc1ncc(/C=C2/C(=O)N(CCCC)C(=O)N2Cc2csc(C)n2)n1Cc1ccc(C2(C(=O)O)CCCC2)cc1`, half-maximal inhibition (IC50) required 8 nM.
Still for that read-out and setting: the value for `CCCCc1ncc(/C=C2/C(=O)N(CCCC)C(=O)N2Cc2ccc(C#N)cc2)n1Cc1ccc(C(=O)OC)cc1` was 11.1 nM; that for `CCCCc1ncc(/C=C2/C(=O)N(CCCC(F)(F)F)C(=O)N2Cc2csc(C)n2)n1Cc1ccc(C(=O)OC)cc1` was 70 nM.
On the same count and under the same terms, under `CCCCc1ncc(/C=C2/C(=O)N(CCCC)C(=O)N2Cc2ccc(O)c(O)c2)n1Cc1ccc(C(=O)OC)cc1` stands 4.9 nM; under `CCCCc1ncc(/C=C2\C(=O)NC(=O)N2CCCC)n1Cc1ccc(C2(C(=O)OC)CCCC2)cc1`, 2.5 nM; under `CCCCc1ncc(/C=C2/C(=O)N(CCCC)C(=O)N2Cc2ccoc2)n1Cc1ccc(C(=O)OC)cc1`, 8.3 nM.
`CCCCc1ncc(/C=C2/C(=O)N(CCCC)C(=O)N2Cc2ccc(Cl)cc2)n1Cc1ccc(C(=O)OC)cc1`: the IC50 was 17.6 nM.
Still for that read-out and setting: under `CCCCc1ncc(/C=C2/C(=O)N(CCCC)C(=O)N2Cc2ccc(C)s2)n1Cc1ccc(C(=O)O)cc1` stands 0.6 nM; under `CCCCc1ncc(/C=C2/C(=O)N(CCCC)C(=O)N2Cc2ccc3ccccc3c2)n1Cc1ccc(C(=O)OC)cc1`, 104 nM.
Same read-out and setting: the value for `CCCCc1ncc(/C=C2\C(=O)N(CCCC)C(=O)N2Cc2csc(N)n2)n1Cc1ccc(C(=O)O)cc1` was 0.5 nM.
In turn, `CCCCc1ncc(/C=C2/C(=O)NC(=O)N2CCCC)n1Cc1ccc(S(=O)(=O)NC(F)(F)F)cc1` gave an IC50 of 3.3 nM.
The same measure, in the same setting: under `CCCCc1ncc(/C=C2/C(=O)N(CCCC)C(=O)N2CCc2csc(Br)c2)n1Cc1ccc(C(=O)OC)cc1` stands 25.4 nM.
Compound `CCCCc1ncc(/C=C2/C(=O)N(CCCC)C(=O)N2Cc2cccc(C)c2)n1Cc1ccc(C(=O)OC)cc1` registered a half-inhibitory concentration (IC50) of 18.5 nM.
Still for that read-out and setting: the value for `CCCCc1ncc(/C=C2/C(=O)N(CCCC)C(=O)N2Cc2c[nH]cn2)n1Cc1ccc(C(=O)OC)cc1` was 54.5 nM; that for `CCCCc1ncc(/C=C2/C(=O)N(CCCC)C(=O)N2Cc2csc(C)n2)n1Cc1ccc(C(=O)OC)cc1` was 1.9 nM; that for `CCCCc1ncc(/C=C2/C(=O)NC(=O)N2Cc2ccc(Cl)cc2)n1Cc1ccc(C(=O)O)cc1` was 3 nM.
`CCCCc1ncc(/C=C2/C(=O)N(CSCC)C(=O)N2Cc2csc(C)n2)n1Cc1ccc(C(=O)OC)cc1` gave an IC50 of 9.6 nM.
Still for that read-out and setting: the value for `CCCCc1ncc(/C=C2/C(=O)NC(=O)N2Cc2cccs2)n1Cc1ccc(C(=O)O)cc1` was 2.3 nM; that for `CCCCc1ncc(/C=C2/C(=O)NC(=O)N2CCCC)n1Cc1ccc(C(=O)OC)cc1` was 3.5 nM.
Still for that read-out and setting: the value for `CCCCc1ncc(/C=C2/C(=O)NC(=O)N2CCCC)n1Cc1ccc(-c2nn[nH]n2)cc1` was 7.1 nM; that for `CCCCc1ncc(/C=C2/C(=O)N(CCCC)C(=O)N2CCCC)n1Cc1ccc(S(=O)(=O)NC(F)(F)F)cc1` was 29.6 nM; that for `CCCCc1ncc(/C=C2/C(=O)N(CCCC)C(=O)N2Cc2ccsc2)n1Cc1ccc(C(=O)OC)cc1` was 4.8 nM.
The same measure, in the same setting: under `CCCCc1ncc(/C=C2/C(=O)N(C)C(=O)N2Cc2csc(C)n2)n1Cc1ccc(C(=O)OC)cc1` stands 16.6 nM; under `CCCCc1ncc(/C=C2\C(=O)NC(=O)N2Cc2ccccc2)n1Cc1ccc(C(=O)O)cc1`, 3.4 nM.
`CCCCc1ncc(/C=C2\C(=O)N(CCCC)C(=O)N2Cc2csc(C)n2)n1Cc1ccc(C(=O)O)cc1` displayed an IC50 of 1.7 nM.
Same read-out and setting: under `CCCCc1ncc(/C=C2\C(=O)N(CCCC)C(=O)N2Cc2cccs2)n1Cc1ccc(C(=O)O)cc1` stands 0.6 nM; under `CCCCc1ncc(/C=C2/C(=O)N(CCCC)C(=O)N2Cc2csc(N)n2)n1Cc1ccc(C(=O)O)cc1`, 0.6 nM; under `CCCCc1ncc(/C=C2/C(=O)N(CCCC)C(=O)N2Cc2ccc(C(F)(F)F)cc2)n1Cc1ccc(C(=O)OC)cc1`, 159 nM.
On the same count and under the same terms, the value for `CCCCc1ncc(/C=C2/C(=O)N(CCCC)C(=O)N2c2ccccc2)n1Cc1ccc(C(=O)OC)cc1` was 6.1 nM.
Compound `CCCCc1ncc(/C=C2/C(=O)N(CCCC)C(=O)N2Cc2ccc(C)cc2)n1Cc1ccc(C(=O)OC)cc1` displayed an IC50 of 34.6 nM.
On the same count and under the same terms, the value for `CCCCc1ncc(/C=C2/C(=O)NC(=O)N2Cc2ccccc2)n1Cc1ccc(C(=O)O)cc1` was 4 nM; that for `CCCCc1ncc(/C=C2\C(=O)NC(=O)N2CCCC)n1Cc1ccc(-c2nn[nH]n2)cc1` was 4.2 nM.
On the same count and under the same terms, the value for `CCCCc1ncc(/C=C2/C(=O)N(CCCC)C(=O)N2C=C(C)C)n1Cc1ccc(C(=O)OC)cc1` was 11.1 nM.
Still for that read-out and setting: under `CCCCc1ncc(/C=C2/C(=O)N(CCCC)C(=O)N2Cc2cccc(Cl)c2)n1Cc1ccc(C(=O)OC)cc1` stands 117 nM; under `CCCCc1ncc(/C=C2/C(=O)N(CCCC)C(=O)N2Cc2ccc(-c3ccccc3)cc2)n1Cc1ccc(C(=O)OC)cc1`, 884 nM.
As for `CCCCc1ncc(/C=C2/C(=O)N(CCCO)C(=O)N2Cc2csc(C)n2)n1Cc1ccc(C(=O)OC)cc1`, the IC50 came to 47.9 nM.
Still for that read-out and setting: the value for `CCCCc1ncc(/C=C2/C(=O)N(CCCC)C(=O)N2Cc2cccs2)n1Cc1ccc(C(=O)O)cc1` was 0.7 nM.
On the same count and under the same terms, the value for `CCCCc1ncc(/C=C2/C(=O)N(CCC)C(=O)N2Cc2csc(C)n2)n1Cc1ccc(C(=O)OC)cc1` was 9 nM; that for `CCCCc1ncc(/C=C2/C(=O)N(CCCC)C(=O)N2Cc2ccc(N)cc2)n1Cc1ccc(C(=O)OC)cc1` was 3 nM.
Still for that read-out and setting: under `CCCCc1ncc(/C=C2\C(=O)NC(=O)N2Cc2cccs2)n1Cc1ccc(C(=O)O)cc1` stands 2.6 nM.
`CCCCc1ncc(/C=C2/C(=O)N(CCCC)C(=O)N2Cc2ccsc2)n1Cc1ccc(C(=O)O)cc1` registered an IC50 of 0.9 nM.
The compound `CCCCc1ncc(/C=C2/C(=O)NC(=O)N2CCCC)n1Cc1ccc(-c2ccccc2-c2nn[nH]n2)cc1` displayed an IC50 of 1.4 nM.
Same read-out and setting: the value for `CCCCc1ncc(/C=C2\C(=O)N(CCCC)C(=O)N2CCCC)n1Cc1ccc(C(=O)O)cc1` was 0.5 nM.
Regarding `CCCCc1ncc(/C=C2/C(=O)NC(=O)N2Cc2cccs2)n1Cc1ccc(C(=O)OC)cc1`, half-maximal inhibition (IC50) required 7.1 nM.
The same measure, in the same setting: under `CCCCc1ncc(/C=C2\C(=O)NC(=O)N2CCC(C)C)n1Cc1ccc(C(=O)O)cc1` stands 4.9 nM; under `CCCCc1ncc(/C=C2/C(=O)N(CCCC)C(=O)N2Cc2c[nH]c(C)n2)n1Cc1ccc(C(=O)OC)cc1`, 245 nM.
Regarding `CCCCc1ncc(/C=C2/C(=O)NC(=O)N2CCC(C)C)n1Cc1ccc(C(=O)O)cc1`, the IC50 stood at 6.6 nM.
Same read-out and setting: the value for `CCCCc1ncc(/C=C2/C(=O)N(CCCC)C(=O)N2Cc2cc(C)cs2)n1Cc1ccc(C(=O)O)cc1` was 1.5 nM.
